Pest or weed control data for 13 compounds are collected here from patent US20220151236A1, “NOVEL OXADIAZOLE COMPOUNDS FOR CONTROLLING OR PREVENTING PHYTOPATHOGENIC FUNGI” (PI INDUSTRIES LTD., priority 2019, published 2022).

Structures are written as SMILES.

The test system of the assay is Phakopsora pachyrhizi. Briefly: Phakopsora pachyrhizi Test on Soybean (preventive activity, greenhouse). The assay is classed as in vivo. The conditions noted are these: preventive spray on young Soybean plants, inoculated one day after treatment, rated 3, 7, 10 and 15 days after application, read-out: Efficacy (% control), disease severity compared to the untreated check. As for the experimental part:
Compounds were dissolved in 2% dimethyl sulfoxide/acetone and then mixed with water containing an emulsifier to a calibrated spray volume of 50 mL. This 50 mL spray solution was poured into spray bottles for further applications. To test the preventive activity of compounds, healthy young Soybean plants raised in the greenhouse were sprayed with the active compound preparation at the stated application rates inside the spray cabinets using hollow cone nozzles. One day after treatment, the plants were inoculated with a spore suspension containing 2×10^5 Phakopsora pachyrhizi conidia. The inoculated plants were then kept in a greenhouse chamber at 22-24° C. temperature and 80-90% relative humidity for disease expression. A visual assessment of the compound's performance was carried out by rating the disease severity (0-100% scale) on treated plants 3, 7, 10 and 15 days after application. Efficacy (% control) of the compounds was calculated by comparing the disease rating in the treatment with the one of the untreated control. The sprayed plants were also assessed for plant compatibility by recording symptoms like necrosis, chlorosis and stunting.
Regarding `COc1cccc(NC(=O)c2cn3ccc(-c4noc(C(F)(F)F)n4)cc3n2)c1` [Compound 1, N-(3-methoxyphenyl)-7-(5-(trifluoromethyl)-1,2,4-oxadiazol-3-yl)imidazo[1,2-a]pyridine-2-carboxamide], the pest or weed control at 500 ppm is no less than 70%.
To `Cc1ccc(NC(=O)c2cn3ccc(-c4noc(C(F)(F)F)n4)cc3n2)cc1` [Compound 3, N-(p-tolyl)-7-(5-(trifluoromethyl)-1,2,4-oxadiazol-3-yl)imidazo[1,2-a]pyridine-2-carboxamide] belongs no less than 70%; to `O=C(Nc1cccc(F)c1)c1cn2ccc(-c3noc(C(F)(F)F)n3)cc2n1` [Compound 4, N-(3-fluorophenyl)-7-(5-(trifluoromethyl)-1,2,4-oxadiazol-3-yl)imidazo[1,2-a]pyridine-2-carboxamide], no less than 70%; to `O=C(Nc1ccc(F)cc1F)c1cn2ccc(-c3noc(C(F)(F)F)n3)cc2n1` [Compound 5, N-(2,4-difluorophenyl)-7-(5-(trifluoromethyl)-1,2,4-oxadiazol-3-yl)imidazo[1,2-a]pyridine-2-carboxamide], no less than 70%.
For `O=C(Nc1ccc(Cl)cc1)c1cn2ccc(-c3noc(C(F)(F)F)n3)cc2n1` [Compound 6, N-(4-chlorophenyl)-7-(5-(trifluoromethyl)-1,2,4-oxadiazol-3-yl)imidazo[1,2-a]pyridine-2-carboxamide], the pest or weed control at 500 ppm is no less than 70%.
Take `O=C(Nc1ccccc1F)c1cn2ccc(-c3noc(C(F)(F)F)n3)cc2n1` [Compound 7, N-(2-fluorophenyl)-7-(5-(trifluoromethyl)-1,2,4-oxadiazol-3-yl)imidazo[1,2-a]pyridine-2-carboxamide]: the pest or weed control at 500 ppm was no less than 70%.
For `O=C(NCc1ccc(C(F)(F)F)cc1)c1cn2ccc(-c3noc(C(F)(F)F)n3)cc2n1` [Compound 8, 7-(5-(trifluoromethyl)-1,2,4-oxadiazol-3-yl)-N-(4-(trifluoromethyl)benzyl)imidazo[1,2-a]pyridine-2-carboxamide] the value was no less than 70%.
For `O=C(Nc1cccnc1)c1cn2ccc(-c3noc(C(F)(F)F)n3)cc2n1` [Compound 9, N-(pyridin-3-yl)-7-(5-(trifluoromethyl)-1,2,4-oxadiazol-3-yl)imidazo[1,2-a]pyridine-2-carboxamide] the value was no less than 70%; for `O=C(NCc1ccccc1)c1cn2ccc(-c3noc(C(F)(F)F)n3)cc2n1` [Compound 10, N-benzyl-7-(5-(trifluoromethyl)-1,2,4-oxadiazol-3-yl)imidazo[1,2-a]pyridine-2-carboxamide], no less than 70%; for `O=C(Nc1ccncc1)c1cn2ccc(-c3noc(C(F)(F)F)n3)cc2n1` [Compound 11, N-(pyridin-4-yl)-7-(5-(trifluoromethyl)-1,2,4-oxadiazol-3-yl)imidazo[1,2-a]pyridine-2-carboxamide], no less than 70%.
To `CNC(=O)c1cn2ccc(-c3noc(C(F)(F)F)n3)cc2n1` [Compound 13, N-methyl-7-(5-(trifluoromethyl)-1,2,4-oxadiazol-3-yl)imidazo[1,2-a]pyridine-2-carboxamide] belongs no less than 70%.
Consider `CN(CCOc1ccccc1)C(=O)c1cn2ccc(-c3noc(C(F)(F)F)n3)cc2n1` [Compound 14, N-methyl-N-(2-phenoxyethyl)-7-(5-(trifluoromethyl)-1,2,4-oxadiazol-3-yl)imidazo[1,2-a]pyridine-2-carboxamide], for which the pest or weed control at 500 ppm is no less than 70%.
For the compound `N#Cc1ccc(NC(=O)c2cn3ccc(-c4noc(C(F)(F)F)n4)cc3n2)cc1` [Compound 15, N-(4-cyanophenyl)-7-(5-(trifluoromethyl)-1,2,4-oxadiazol-3-yl)imidazo[1,2-a]pyridine-2-carboxamide], the pest or weed control at 500 ppm is no less than 70%.
